Values of other authors, collected in patent US5639785A, “Methods for the treatment of baldness and gray hair using isoflavonoid derivatives” (priority 1995, dated 1997).
Like-named read-outs stand apart in the source and are kept apart here.

Experiments:
patients with hair loss = details: after four months of treatment
[1] = system: Du-145 human prostate cancer cell line
[2] = system: alcohol dehydrogenase (ADH) class I isozymes
[3] = system: LNCaP human prostate cancer cell line
[4] = target: T1, aldehyde dehydrogenase (ALDH) II and II of human mitochondria (Homo sapiens, UniProt P05091)
T1 sequence (P05091 18-517): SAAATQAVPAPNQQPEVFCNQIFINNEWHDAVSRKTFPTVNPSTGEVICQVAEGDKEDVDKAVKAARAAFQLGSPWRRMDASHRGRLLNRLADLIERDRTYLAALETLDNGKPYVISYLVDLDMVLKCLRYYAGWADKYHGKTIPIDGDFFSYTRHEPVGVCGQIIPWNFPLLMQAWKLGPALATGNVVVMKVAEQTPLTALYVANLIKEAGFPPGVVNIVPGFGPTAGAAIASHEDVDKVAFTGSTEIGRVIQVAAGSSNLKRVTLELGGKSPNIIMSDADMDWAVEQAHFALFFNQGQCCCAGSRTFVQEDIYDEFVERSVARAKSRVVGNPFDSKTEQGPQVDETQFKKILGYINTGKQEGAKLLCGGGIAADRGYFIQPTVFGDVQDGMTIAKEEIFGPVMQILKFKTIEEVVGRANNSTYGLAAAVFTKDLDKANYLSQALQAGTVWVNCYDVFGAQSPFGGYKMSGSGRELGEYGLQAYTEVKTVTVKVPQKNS

[5] = target: r1 r1 ADH isozyme (alcohol dehydrogenase class I) (Homo sapiens, UniProt P00326); details: competitive with respect to ethanol, uncompetitive with respect to NAD
Sequence of r1 r1 ADH isozyme (alcohol dehydrogenase class I) (P00326 2-375 limits assumed): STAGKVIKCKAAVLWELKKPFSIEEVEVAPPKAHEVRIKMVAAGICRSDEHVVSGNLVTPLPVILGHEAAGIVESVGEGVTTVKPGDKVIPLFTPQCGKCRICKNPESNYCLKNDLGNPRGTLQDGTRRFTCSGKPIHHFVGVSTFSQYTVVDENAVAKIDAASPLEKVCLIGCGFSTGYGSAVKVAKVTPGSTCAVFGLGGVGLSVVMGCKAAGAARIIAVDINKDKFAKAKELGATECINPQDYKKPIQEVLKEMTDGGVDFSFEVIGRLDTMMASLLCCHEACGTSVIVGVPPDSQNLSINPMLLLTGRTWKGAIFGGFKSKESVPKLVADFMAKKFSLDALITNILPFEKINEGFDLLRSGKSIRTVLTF

[6] = target: r2 r2 ADH isozyme (alcohol dehydrogenase class I) (Homo sapiens, UniProt P00326, I350V/R272Q); details: competitive with respect to ethanol, uncompetitive with respect to NAD
Sequence of r2 r2 ADH isozyme (alcohol dehydrogenase class I) (P00326 2-375 R272Q/I350V limits assumed): as the sequence (P00326 2-375 limits assumed) above, with R271Q, I349V counted along it

[7] = system: HL60 human leukemia cells

| Structure (SMILES) | inhibition of serum and epidermal growth factor-stimulated growth [1] | inhibition of ADH [2] | inhibition of serum and epidermal growth factor-stimulated growth [3] | free choice ethanol intake (Syrian Golden hamsters; Syrian Golden hamsters) | further results |
| --- | --- | --- | --- | --- | --- |
| Nc1cc(N2CCCCC2)nc(N)[n+]1[O-] [Minoxidil] |  |  |  |  | patients who achieve minimal regrowth of hair (patients with hair loss): approximately 25% |
| O=c1c(-c2ccc(O)cc2)coc2cc(O)cc(O)c12 [genistein] | inhibited | reversible inhibitors | inhibited |  |  |
| O=c1c(-c2ccc(O)cc2)coc2cc(O[C@@H]3O[C@H](CO)[C@@H](O)[C@H](O)[C@H]3O)ccc12 [daidzin] |  | did not inhibit |  | suppressed | inhibition of ALDH [4]: potent inhibitor; effect on body weight, water or food intake (Syrian Golden hamsters; Syrian Golden hamsters): did not significantly affect |
| O=c1c(-c2ccc(O)cc2)coc2cc(O)ccc12 [daidzein, 7-hydroxy-3-(4-hydroxyphenyl)-4-H-1-benzopyranyl-4-one] | not | reversible inhibitors | not | suppressed | Ki [5]: ~1000 nM; Ki [6]: ~1000 nM; effect on body weight, water or food intake (Syrian Golden hamsters; hamster, in vivo): did not significantly affect; concentration that inhibited the growth of HL60 cells [7]: greater than 10 μg/ml |
| COc1ccc(-c2coc3cc(O)cc(O)c3c2=O)cc1 [biochanin A] | inhibited |  | inhibited |  |  |
